In patent publication US20220296595A1, “CDK INHIBITORS” (QILU REGOR THERAPEUTICS INC., priority 2019, published 2022):
Like-named read-outs stand apart in the source and are kept apart here.

Columns and labels:
CDK4/CyclinD1 = target: T1, CDK4/CyclinD1 (Homo sapiens, UniProt P11802); assay: Assay for inhibition of CDK4/CyclinD1 (Caliper microfluidic kinase assay); assay type: biochemical; conditions: CDK4/CyclinD1, 200 μM ATP
T1 construct: purchased Thermofisher PR8064A
Procedure: The CDK4 enzyme assay for IC50 determination was performed as follows. Microfluidic kinase detection technology (Caliper) was used to monitor the phosphorylation of peptide substrate by CDK4/CyclinD1. The total reaction volume was 15 μL containing buffer A (100 mM HEPES (pH 7.5), 0.1% BSA, 0.01% Triton X-100, 1 mM DTT, 10 mM MgCl2, 10 μM Sodium Orthovanadate, 10 μM Beta-Glycerophosphate), 200 μM ATP, 1 nM CDK4/CyclinD1 (Thermofisher, PR8064A), 1 μM FL-34 (5-FAM-[…]), and the test compound at appropriate dilutions in DMSO. All components were added to the 384-well plate (Corning, 4514), and incubated at Room Temperature for 3 hours. The reaction was terminated by addition of 15 μL Stop Buffer (180 mM HEPES (pH 7.5), 20 mM EDTA, Coating-3 reagent (PerkinElmer, 760050)). The plate was then loaded on Caliper EZ Reader (EZ Reader II, PerkinElmer, HD-4HYSG2772), and the reaction mixtures including substrate and product were sipped into the microfluidic chip for separation and detection. The IC50 values of the test compound were determined by fitting the inhibition curves by 4 parameter sigmoidal dose-response model using the Xlfit5/GraphPad Prism 5 software.

CDK2/CyclinE1 = target: T2, CDK2/CyclinE1 (Homo sapiens, UniProt P24941); assay: Assay for inhibition of CDK2/CyclinE1 (Caliper microfluidic kinase assay); assay type: biochemical; conditions: CDK2/CyclinE1, 100 μM ATP; read-out: CDK2 IC50
T2 construct: purchased SignalChem C29-18G
Procedure: The CDK2 enzyme assay for IC50 determination was performed as follows. Microfluidic kinase detection technology (Caliper) was used to monitor the phosphorylation of peptide substrate by CDK2/CyclinE1. The total reaction volume was 15 μL containing buffer A (100 mM HEPES (pH 7.5), 0.1% BSA, 0.01% Triton X-100, 1 mM DTT, 10 mM MgCl2, 10 μM Sodium Orthovanadate, 10 μM Beta-Glycerophosphate), 100 μM ATP, 5 nM CDK2/CyclinE1 (SignalChem, C29-18G), 5 μM FL-18 (5-FAM-QSPKKG-NH2), and the test compound at appropriate dilutions in DMSO. All components were added to the 384-well plate (Corning, 4514), and incubate at Room Temperature for 3 hours. The reaction was terminated by addition of 15 μL Stop Buffer (180 mM HEPES (pH 7.5), 20 mM EDTA, Coating-3 reagent (PerkinElmer, 760050)). The plate was loaded on Caliper EZ Reader (EZ Reader II, PerkinElmer, HD-4HYSG2772), and the reaction mixtures including substrate and product were sipped into the microfluidic chip for separation and detection. The IC50 values of the test compound were determined by fitting the inhibition curves by 4 parameter sigmoidal dose-response model using the Xlfit5/GraphPad Prism 5 software.

T47D breast cancer cells = assay: Anti-proliferation assay in T47D cell (Cyquant, day 6); assay type: cell-based, human; conditions: anti-proliferation, T47D cells, read-out: T47D IC50
Description: T47D is a human breast cancer cell line commonly used in biomedical research involving the hormonal expression of cancer cells. T47D cells are distinct from other human breast cancer cells in that their progesterone receptors (PR) are not regulated by estradiol, a hormone that is abundant within the cells themselves. T47D cells have been employed in studies of the effects of progesterone on breast cancer and the corresponding transcriptional regulation caused by introduced drugs. The cells have been noted to be extremely resistant to estrogens and antiestrogens.
T47D breast cancer cells from American Type Culture Collection (ATCC, HTB-133) were plated at 3000 cells/well in 96-well plates, and were incubated in RPMI 1640 medium (Gibco, 31800105) with 10% Fetal Bovine Serum (FBS, Biowest, FB-1058) at 37° C., 5% CO2. After overnight incubation, baseline values were measured of the samples from one plate using Cyquant reagent (Invitrogen, C35011) following manufacturer's recommendations. Cells were incubated with the detection reagent for 1 hour at 37° C., and then the fluorescence was measured with excitation at 485 nm and emission at 535 nm using Spectra Max M5 (Molecular Devices, HD-4HYSG3196). Other plates were dosed with compounds at a ten-point dose concentration from 10 μM to 0.51 nM in a 3-fold dilution scheme. On day 6 after compound addition, Cyquant reagent was added and the fluorescence was measured using Spectra Max M5. The IC50 values of the test compound's anti-proliferation activity were determined from the baseline subtracted viability readout curve using Xlfit5/GraphPad Prism 5 software.

T1 sequence (P11802 whole entry): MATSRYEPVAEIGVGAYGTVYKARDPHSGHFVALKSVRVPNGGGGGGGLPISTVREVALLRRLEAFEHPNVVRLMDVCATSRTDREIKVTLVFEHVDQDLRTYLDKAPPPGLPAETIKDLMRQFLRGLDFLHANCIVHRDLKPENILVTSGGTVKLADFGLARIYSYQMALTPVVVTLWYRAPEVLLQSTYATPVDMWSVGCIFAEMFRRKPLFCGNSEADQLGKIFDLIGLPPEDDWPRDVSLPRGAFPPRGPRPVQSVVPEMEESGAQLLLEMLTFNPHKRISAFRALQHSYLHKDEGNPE
T1 sequence (P24385 whole entry partner): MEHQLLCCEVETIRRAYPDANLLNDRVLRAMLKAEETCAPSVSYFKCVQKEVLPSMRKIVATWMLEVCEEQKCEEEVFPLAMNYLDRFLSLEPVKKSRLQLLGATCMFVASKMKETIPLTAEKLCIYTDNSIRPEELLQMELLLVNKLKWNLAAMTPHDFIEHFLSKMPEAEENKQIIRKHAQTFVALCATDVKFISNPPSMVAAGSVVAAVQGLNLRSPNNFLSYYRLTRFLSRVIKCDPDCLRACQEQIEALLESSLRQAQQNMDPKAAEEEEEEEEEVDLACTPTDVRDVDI

## Cc1nc2c(F)nc(-c3ccnc(Nc4ccc(N5CCCC(N(C)C)C5=O)cn4)n3)cc2n1C(C)C (single isomer, unassigned) [Synthetic Example 302, 3-(dimethylamino)-1-[6-[[4-(4-fluoro-1-isopropyl-2-methyl-imidazo[4,5-c]pyridin-6-yl)pyrimidin-2-yl]amino]-3-pyridyl]piperidin-2-one]
CDK4/CyclinD1
  IC50: < 10 nM
CDK2/CyclinE1
  IC50: > 1000 nM
T47D breast cancer cells; Homo sapiens, T47D
  IC50: < 100 nM

## CC(C)c1cnn2ccc(-c3ccnc(Nc4ccc(N5CCC(N(C)C)C5=O)cc4)n3)cc12 (stereo not drawn) [compound 144]
CDK4/CyclinD1
  IC50: < 10 nM
CDK2/CyclinE1
  IC50: < 10 nM
T47D breast cancer cells; Homo sapiens, T47D
  IC50: < 100 nM

## Cc1nn2ccc(-c3ccnc(Nc4ccc(N5CCCC(N)C5=O)cc4)n3)cc2c1C(C)C (stereo not drawn) [compound 216]
CDK4/CyclinD1
  IC50: < 10 nM
CDK2/CyclinE1
  IC50: 10 to 100 nM
T47D breast cancer cells; Homo sapiens, T47D
  IC50: < 100 nM

## Cc1nc2c(F)nc(-c3ccnc(Nc4ccc(N5CCC(N(C)C)CC5=O)cc4)n3)cc2n1C(C)C (stereo not drawn) [compound 295]
CDK4/CyclinD1
  IC50: < 10 nM
CDK2/CyclinE1
  IC50: < 10 nM
T47D breast cancer cells; Homo sapiens, T47D
  IC50: < 100 nM

## Cc1nn2ccc(-c3ccnc(Nc4ccc(N5CCCC(N(C)C)C5=O)cc4)n3)cc2c1C(C)C (stereo not drawn) [compound 178]
CDK4/CyclinD1
  IC50: < 10 nM
CDK2/CyclinE1
  IC50: 100 to 1000 nM
T47D breast cancer cells; Homo sapiens, T47D
  IC50: < 100 nM

## CC(C)n1cnc2c(F)nc(-c3ccnc(Nc4ccc(N5CCCC(N)C5=O)cc4F)n3)cc21 (stereo not drawn) [compound 306]
CDK4/CyclinD1
  IC50: < 10 nM
CDK2/CyclinE1
  IC50: 10 to 100 nM
T47D breast cancer cells; Homo sapiens, T47D
  IC50: < 100 nM

## CNC1CCN(c2ccc(Nc3nccc(-c4ccn5ncc(C(C)C)c5c4)n3)nc2)C(=O)C1 (single isomer, unassigned) [Synthetic Example 206, 1-[6-[[4-(3-isopropylpyrazolo[1,5-a]pyridin-5-yl)pyrimidin-2-yl]amino]-3-pyridyl]-4-(methylamino)piperidin-2-one]
CDK4/CyclinD1
  IC50: < 10 nM
CDK2/CyclinE1
  IC50: < 10 nM
T47D breast cancer cells
  IC50: < 100 nM

## CC(C)c1cnn2ccc(-c3ccnc(Nc4ccc(N5CCC(N(C)CCF)CC5=O)cn4)n3)cc12 (stereo not drawn) [compound 170]
CDK4/CyclinD1
  IC50: < 10 nM
CDK2/CyclinE1
  IC50: 10 to 100 nM
T47D breast cancer cells; Homo sapiens, T47D
  IC50: < 100 nM

## CC1(N)CCN(c2ccc(Nc3nccc(-c4cc(F)c5c(c4)C4(CCCC4)CO5)n3)nc2)C(=O)C1 (stereo not drawn) [compound 260]
CDK4/CyclinD1
  IC50: < 10 nM
CDK2/CyclinE1
  IC50: 10 to 100 nM
T47D breast cancer cells; Homo sapiens, T47D
  IC50: < 100 nM

## CC(C)n1cnc2c1CN(c1ccnc(Nc3ccc(N4CCCC(N)C4=O)cc3)n1)CC2 (stereo not drawn) [compound 246]
CDK4/CyclinD1
  IC50: < 10 nM
CDK2/CyclinE1
  IC50: 100 to 1000 nM
T47D breast cancer cells; Homo sapiens, T47D
  IC50: 500 to 1000 nM

## CC(C)c1cnn2ccc(-c3nc(Nc4ccc(N5CCN(C6CC6)CCC5=O)cn4)ncc3F)cc12 [Synthetic Example 49]
CDK4/CyclinD1
  IC50: < 10 nM
CDK2/CyclinE1
  IC50: 100 to 1000 nM
T47D breast cancer cells; Homo sapiens, T47D
  IC50: 100 to 500 nM

## CC(C)n1cnc2c1CN(c1nc(Nc3ccc(N4CCCNC4=O)cc3)ncc1F)CC2 [compound 253]
CDK4/CyclinD1
  IC50: < 10 nM
CDK2/CyclinE1
  IC50: 10 to 100 nM
T47D breast cancer cells; Homo sapiens, T47D
  IC50: < 100 nM

## CN(C)C1CCCN(c2ccc(Nc3nccc(-c4cc(F)c5c(c4)C(C)(C)CO5)n3)cc2)C1=O (stereo not drawn) [compound 266]
CDK4/CyclinD1
  IC50: < 10 nM
CDK2/CyclinE1
  IC50: 100 to 1000 nM
T47D breast cancer cells; Homo sapiens, T47D
  IC50: < 100 nM

## CC(C)n1cnc2c1CN(c1nc(Nc3ccc(N4CCNCC4=O)cc3)ncc1F)CC2 [compound 257]
CDK4/CyclinD1
  IC50: < 10 nM
CDK2/CyclinE1
  IC50: < 10 nM
T47D breast cancer cells; Homo sapiens, T47D
  IC50: < 100 nM

## CCN1CC(=O)N(c2ccc(Nc3ncc(F)c(-c4ccn5ncc(C(C)C)c5c4)n3)nc2)CC1=O [compound 14]
CDK4/CyclinD1
  IC50: 10 to 100 nM
CDK2/CyclinE1
  IC50: 10 to 100 nM
T47D breast cancer cells; Homo sapiens, T47D
  IC50: < 100 nM

## CC(C)n1cnc2c1CN(c1nc(Nc3ccc(N4CCOCC4=O)cn3)ncc1F)CC2 [compound 239]
CDK4/CyclinD1
  IC50: < 10 nM
CDK2/CyclinE1
  IC50: 10 to 100 nM
T47D breast cancer cells; Homo sapiens, T47D
  IC50: 100 to 500 nM

## CC(C)n1cnc2c1CN(c1nc(Nc3ccc(N4CCNCC4=O)cn3)ncc1F)CC2 [compound 238]
CDK4/CyclinD1
  IC50: < 10 nM
CDK2/CyclinE1
  IC50: 10 to 100 nM
T47D breast cancer cells; Homo sapiens, T47D
  IC50: 100 to 500 nM

## CC(C)n1cnc2c1CN(c1nc(Nc3ccc(N4CCCC(N)C4=O)cc3)ncc1F)CC2 (stereo not drawn) [compound 247]
CDK4/CyclinD1
  IC50: < 10 nM
CDK2/CyclinE1
  IC50: 10 to 100 nM
T47D breast cancer cells; Homo sapiens, T47D
  IC50: < 100 nM

## CC(C)n1cnc2c(F)nc(-c3ccnc(Nc4ccc(N5CCCC(N(C)C)C5=O)cc4)n3)cc21 (stereo not drawn) [compound 304]
CDK4/CyclinD1
  IC50: < 10 nM
CDK2/CyclinE1
  IC50: 10 to 100 nM
T47D breast cancer cells; Homo sapiens, T47D
  IC50: < 100 nM
